One assay deals with T1, CDK7 (Homo sapiens, UniProt P50613).
T1 construct: purchased Carna Biosciences, Inc. 04-108
The assay is described as follows: CDK7 enzyme inhibition test. Format: biochemical. The conditions noted are these: Ki=IC50/(1+S/Km); 33P bound to MBP, [γ-33P]ATP, 30° C. for 20 minutes; read-out: Ki value of CDK7 inhibitory activity. A digest of the protocol:
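Recombinant CDK7 with MBP substrate and [γ-33P]ATP (500 μM solution, diluted into the mix) in HEPES pH 7.4/DTT/Triton X-100/MgCl2, 20 min at 30 °C. TCA-precipitated 33P-MBP counted by scintillation; IC50 from inhibition, Ki = IC50/(1+S/Km).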

In a further assay the target is T2, PAK4 (Homo sapiens, UniProt O96013).
T2 construct: purchased Invitrogen Corp. PV4212
T2 sequence (O96013 whole entry): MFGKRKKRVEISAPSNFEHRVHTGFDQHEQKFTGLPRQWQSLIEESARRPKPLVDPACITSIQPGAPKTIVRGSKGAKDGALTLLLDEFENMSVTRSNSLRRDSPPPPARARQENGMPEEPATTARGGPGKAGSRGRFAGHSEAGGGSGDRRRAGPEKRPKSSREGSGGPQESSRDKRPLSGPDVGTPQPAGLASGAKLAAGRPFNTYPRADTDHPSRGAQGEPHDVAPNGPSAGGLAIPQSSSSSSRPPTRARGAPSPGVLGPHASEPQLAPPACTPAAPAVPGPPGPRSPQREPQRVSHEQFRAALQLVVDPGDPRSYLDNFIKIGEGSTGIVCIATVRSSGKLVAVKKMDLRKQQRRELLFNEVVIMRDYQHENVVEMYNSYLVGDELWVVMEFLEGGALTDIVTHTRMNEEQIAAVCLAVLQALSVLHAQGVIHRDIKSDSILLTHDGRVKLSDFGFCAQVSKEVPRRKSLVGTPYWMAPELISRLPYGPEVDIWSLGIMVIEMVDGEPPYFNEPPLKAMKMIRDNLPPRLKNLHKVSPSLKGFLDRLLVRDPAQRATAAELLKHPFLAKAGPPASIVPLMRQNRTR
Put plainly: PAK4 enzyme inhibition test. Format: biochemical. The conditions noted are these: Ki=IC50/(1+S/Km); 33P bound to MBP, [γ-33P]ATP, 30° C. for 20 minutes; read-out: Ki value of PAK4 inhibitory activity. The procedure, abridged:
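Radiometric assay: PAK4 with MBP substrate and 40 μM [γ-^33P]ATP solution in Tris pH 7.5 buffer with MgCl2, DTT, EGTA, reacted 20 min at 30 °C. TCA-precipitated, washed ^33P-MBP counted by scintillation. IC50 from inhibition of ^33P incorporation; Ki = IC50/(1+S/Km).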

The subject of assay [1] is IL-2 production in human peripheral blood mononuclear cell (PBMC). The assay is described as follows: Human PBMC CD3/CD28-induced IL-2 production inhibition test. It counts as cell-based. The conditions noted are these: 48 h, CD3/CD28 stimulation, incubation for 2 days, ELISA. A digest of the protocol:
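Healthy-donor PBMC were stimulated with compound for 2 days on anti-CD3-coated plates with anti-CD28 (2 μg/mL in medium before cell addition), in RPMI1640/10% FBS with 0.1% DMSO final. Supernatant IL-2 was measured by sandwich ELISA; IC50 (nM) came from inhibition relative to DMSO-only stimulated wells.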
A general note: An ELISA detects its analyte on a solid surface through an enzyme-linked reagent.

Experimental findings from patent US10131679B2, “Substituted dihydropyrrolopyrazole compound” (UBE INDUSTRIES, LTD., priority 2014, dated 2018) are described below.

The structures appear in SMILES notation. pIC50, pKi: −log10 of the molar value.

T1 sequence (P50613 whole entry): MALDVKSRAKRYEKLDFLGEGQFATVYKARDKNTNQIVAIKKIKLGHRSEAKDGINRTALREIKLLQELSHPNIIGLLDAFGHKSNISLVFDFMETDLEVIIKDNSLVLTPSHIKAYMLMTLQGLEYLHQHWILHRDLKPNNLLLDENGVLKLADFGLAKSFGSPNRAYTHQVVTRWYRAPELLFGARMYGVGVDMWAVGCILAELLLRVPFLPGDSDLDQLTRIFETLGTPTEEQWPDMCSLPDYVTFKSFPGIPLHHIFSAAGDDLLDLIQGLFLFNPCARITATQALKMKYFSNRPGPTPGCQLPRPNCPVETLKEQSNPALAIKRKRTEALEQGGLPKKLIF
T1 sequence (P51946 whole entry partner): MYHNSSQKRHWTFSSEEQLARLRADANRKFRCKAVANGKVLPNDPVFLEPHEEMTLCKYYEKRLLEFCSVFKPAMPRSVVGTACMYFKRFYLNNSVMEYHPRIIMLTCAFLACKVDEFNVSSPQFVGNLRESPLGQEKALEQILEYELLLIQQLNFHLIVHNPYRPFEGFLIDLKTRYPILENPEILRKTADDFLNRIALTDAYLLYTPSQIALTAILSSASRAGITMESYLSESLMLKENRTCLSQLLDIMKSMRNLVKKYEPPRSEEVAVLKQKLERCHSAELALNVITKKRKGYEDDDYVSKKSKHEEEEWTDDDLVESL
T1 sequence (P51948 whole entry partner): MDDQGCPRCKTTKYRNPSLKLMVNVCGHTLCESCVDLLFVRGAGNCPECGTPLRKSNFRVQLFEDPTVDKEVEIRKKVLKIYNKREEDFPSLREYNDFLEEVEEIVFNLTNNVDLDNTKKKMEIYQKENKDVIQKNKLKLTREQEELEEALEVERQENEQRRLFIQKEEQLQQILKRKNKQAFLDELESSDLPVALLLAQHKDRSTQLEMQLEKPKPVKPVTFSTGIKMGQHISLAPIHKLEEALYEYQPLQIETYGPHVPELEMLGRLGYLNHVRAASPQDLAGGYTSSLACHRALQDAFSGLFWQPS

By pKi is commonly meant −log10 of the Ki, conventionally taken in molar units. For orientation: pIC50 means −log10 of the IC50, conventionally taken in molar units. A higher pIC50 goes with a low IC50. For `COC[C@@H](NC(=O)N1Cc2c(NC(=O)C3([Si](C)(C)C)CCC3)n[nH]c2C1(C)C)c1ccccc1` [IV-123, (S)—N-(2-Methoxy-1-phenylethyl)-6,6-dimethyl-3-[1-(trimethylsilyl)cyclobutanecarboxamido]-4,6-dihydropyrrolo[3,4-c]pyrazole-5(1H)-carboxamide], the negative-log Ki (pKi) on CDK7 was not below 7.30; on PAK4, not above 6.30. The compound also showed a pIC50 in assay [1] not below 7.30.

Consider `CC1(C)c2[nH]nc(NC(=O)C3([Si](C)(C)C)CCC3)c2CN1C(=O)NCC(O)c1ccccc1` (stereo not drawn) [IV-450, N-(2-Hydroxy-2-phenylethyl)-6,6-dimethyl-3-[1-(trimethylsilyl)cyclobutanecarboxamido]-4,6-dihydropyrrolo[3,4-c]pyrazole-5(1H)-carboxamide], for which the negative logarithm of the Ki (pKi) on CDK7 was not below 7.30; on PAK4, not above 6.30. Moreover, in assay [1], the pIC50 is not below 7.30.

As to `CC1(C)c2[nH]nc(NC(=O)C3([Si](C)(C)C)CCC3)c2CN1C(=O)N[C@H](CCCO)c1ccccc1` [IV-283, (R)—N-(4-Hydroxy-1-phenylbutyl)-6,6-dimethyl-3-[1-(trimethylsilyl)cyclobutanecarboxamido]-4,6-dihydropyrrolo[3,4-c]pyrazole-5(1H)-carboxamide], the pKi was not below 7.30 on CDK7 and not above 6.30 at PAK4. This compound also had a negative logarithm of the IC50 (pIC50) in assay [1] not below 7.30.

On to `CC(C)(O)C[C@@H](NC(=O)N1Cc2c(NC(=O)C3([Si](C)(C)C)CCC3)n[nH]c2C1(C)C)c1ccccc1` [IV-299, (R)—N-(3-Hydroxy-3-methyl-1-phenylbutyl)-6,6-dimethyl-3-[1-(trimethylsilyl)cyclobutanecarboxamido]-4,6-dihydropyrrolo[3,4-c]pyrazole-5(1H)-carboxamide], for which the negative-log Ki (pKi) was not below 7.30 at CDK7 and not above 6.30 at PAK4. The compound further gave a negative logarithm of the IC50 (pIC50) in assay [1] not below 7.30.

Consider `CC1(C)c2[nH]nc(NC(=O)C3([Si](C)(C)C)CC3)c2CN1C(=O)N[C@H](CO)c1ccccc1` [III-114, (S)—N-(2-Hydroxy-1-phenylethyl)-6,6-dimethyl-3-[1-(trimethylsilyl)cyclopropanecarboxamido]-4,6-dihydropyrrolo[3,4-c]pyrazole-5(1H)-carboxamide], for which the negative logarithm of the Ki (pKi) at CDK7 is not below 7.30; on PAK4, not above 6.30. The compound also had a negative logarithm of the IC50 (pIC50) in assay [1] not below 7.30.

As for `CC1(C)c2[nH]nc(NC(=O)C(C)(C)[Si](C)(C)C)c2CN1C(=O)N[C@H](CO)c1ccccc1` [II-114, (S)—N-(2-Hydroxy-1-phenylethyl)-6,6-dimethyl-3-[2-methyl-2-(trimethylsilyl)propanamido]-4,6-dihydropyrrolo[3,4-c]pyrazole-5(1H)-carboxamide], the negative logarithm of the Ki (pKi) on CDK7 was not below 7.30; at PAK4, not above 6.30. The negative-log IC50 (pIC50) in assay [1] is not below 7.30.

Consider `CC1(C)c2[nH]nc(NC(=O)C3([Si](C)(C)C)CCC3)c2CN1C(=O)N[C@H](CO)c1ccccc1` [IV-114, (S)—N-(2-Hydroxy-1-phenylethyl)-6,6-dimethyl-3-[1-(trimethylsilyl)cyclobutanecarboxamido]-4,6-dihydropyrrolo[3,4-c]pyrazole-5(1H)-carboxamide], for which the pKi is not below 7.30 at CDK7 and not above 6.30 on PAK4. This compound showed a negative-log IC50 (pIC50) in assay [1] not below 7.30.

Turning to `CC(C)(O)[C@@H](NC(=O)N1Cc2c(NC(=O)C3([Si](C)(C)C)CCC3)n[nH]c2C1(C)C)c1ccccc1` [IV-171, (S)—N-(2-Hydroxy-2-methyl-1-phenylpropyl)-6,6-dimethyl-3-[1-(trimethylsilyl)cyclobutanecarboxamido]-4,6-dihydropyrrolo[3,4-c]pyrazole-5(1H)-carboxamide], the pKi was not below 7.30 on CDK7 and not above 6.30 on PAK4. This compound showed a pIC50 in assay [1] not below 7.30.

For the compound `CC1(C)c2[nH]nc(NC(=O)C3([Si](C)(C)C)CCC3)c2CN1C(=O)N[C@H](CCO)c1ccccc1` [IV-227, (R)—N-(3-Hydroxy-1-phenylpropyl)-6,6-dimethyl-3-[1-(trimethylsilyl)cyclobutanecarboxamido]-4,6-dihydropyrrolo[3,4-c]pyrazole-5(1H)-carboxamide], the pKi was not below 7.30 at CDK7 and not above 6.30 at PAK4. Further, the negative-log IC50 (pIC50) in assay [1] was not below 7.30.
